“And” between values parts separate entries of the source, which are not always exact repeats. Equal values may be shown once.
Tested on: P. yoelii strain YM
Test: P. yoelii strain YM infection in mice, parasitemia and mortality (Example 16)
Type: in vivo, BALB/c mice
Settings: for % parasitemia, Mean: orally 100 mg/kg/dose 3 and 24 h after infection
[1] = D + 9, 10 mg per kg twice daily days +1 to +4
[2] = D + 11, 10 mg per kg twice daily days +1 to +4
[3] = D + 12, 10 mg per kg twice daily days +1 to +4
[4] = D + 12, i.p. 10 mg/kg twice daily D-1, D0
[5] = D + 14, i.p. 10 mg/kg twice daily D-1, D0
[6] = D + 15, 10 mg per kg twice daily days +1 to +4
[7] = D + 16, 10 mg per kg twice daily days +1 to +4
[8] = D + 16, i.p. 10 mg/kg four times daily D + 4 to D + 7
[9] = D + 16, i.p. 10 mg/kg twice daily D-1, D0
[10] = D + 17, 10 mg per kg twice daily days +1 to +4
[11] = D + 18, i.p. 10 mg/kg four times daily D + 4 to D + 7
[12] = D + 18, i.p. 10 mg/kg twice daily D-1, D0
[13] = D + 20, i.p. 10 mg/kg four times daily D + 4 to D + 7
[14] = D + 20, i.p. 10 mg/kg twice daily D-1, D0

C=CC(C)(C)c1cc(/C=C/C(=O)c2ccc(O)cc2)c(OC)cc1O [Licochalcone A, licochalcone A]
% parasitemia (mean ± SEM) (D + 8, i.p. 5 mg/kg/day twice daily, 3 h after infection and D + 1 to D + 3): 36.6 ± 5.7% | % parasitemia (mean ± SEM) (D + 8, i.p. 10 mg/kg four times daily D + 4 to D + 7): 17 ± 6.2% | % parasitemia (mean ± SEM) (D + 8, i.p. 10 mg/kg twice daily D-1, D0): 27.8 ± 16.1% | % parasitemia (mean ± SEM) (D + 8, i.p. 10 mg/kg/day twice daily, 3 h after infection and D + 1 to D + 3): 30.2 ± 6.4% | % parasitemia (mean ± SEM) (D + 8, i.p. 15 mg/kg/day twice daily, 3 h after infection and D + 1 to D + 3): 22 ± 11.6% | Parasitemia, mean [1]: 23.0% | Parasitemia, single mice [1]: 20.0% and 18.0% and 31.0% | Parasitemia, mean (D + 10, 10 mg per kg twice daily days +1 to +4): 25.5% | Parasitemia, single mice (D + 10, 10 mg/kg/day in 2 injections, days +1 to +6, 10 mg/kg/day): 39.0% and 42.0% | % parasitemia (mean ± SEM) (D + 10, 10 mg/kg/day twice daily, 3 h after infection, D + 1 to D + 5): 6.0 ± 3.8% | % parasitemia (mean ± SEM) (D + 10, 15 mg/kg/day twice daily, 3 h after infection, D + 1 to D + 5): 0% | Parasitemia, single mice (D + 10, 20 mg/kg/day in 2 injections, days +1 to +6, 20 mg/kg/day): 5.0% and 8.0% | Parasitemia, single mice (D + 10, 40 mg/kg/day in 2 injections, days +1 to +6, 40 mg/kg/day): 32.0% and 38.0% | mortality (no. of dead mice/total no. of tested mice) (D + 10, i.p. 5 mg/kg/day twice daily to D + 3): (2/5) | % parasitemia (mean ± SEM) (D + 10, i.p. 5 mg/kg/day twice daily, 3 h after infection and D + 1 to D + 3): 64 ± 5.0% | % parasitemia (mean ± SEM) (D + 10, i.p. 10 mg/kg four times daily D + 4 to D + 7): 27.6 ± 12.1% | % parasitemia (mean ± SEM) (D + 10, i.p. 10 mg/kg twice daily D-1, D0): 47.4 ± 27.7% | mortality (no. of dead mice/total no. of tested mice) (D + 10, i.p. 10 mg/kg/day twice daily to D + 3): (1/5) | % parasitemia (mean ± SEM) (D + 10, i.p. 10 mg/kg/day twice daily, 3 h after infection and D + 1 to D + 3): 48 ± 5.4% | mortality (no. of dead mice/total no. of tested mice) (D + 10, i.p. 15 mg/kg/day twice daily to D + 3): (1/5) | % parasitemia (mean ± SEM) (D + 10, i.p. 15 mg/kg/day twice daily, 3 h after infection and D + 1 to D + 3): 22 ± 11.6% | % parasitemia, Mean (D + 10): 43% | Parasitemia, mean [2]: 37.0% | Parasitemia, single mice [2]: 33.0% and 41.0% | Parasitemia, single mice (D + 11, 40 mg/kg/day in 2 injections, days +1 to +6, 40 mg/kg/day): 51.0% | Parasitemia, mean [3]: 74.0% | Parasitemia, single mice [3]: 80.0% and 68.0% | % parasitemia (mean ± SEM) (D + 12, 10 mg/kg/day twice daily, 3 h after infection, D + 1 to D + 5): 14.4 ± 8.9% | % parasitemia (mean ± SEM) (D + 12, 15 mg/kg/day twice daily, 3 h after infection, D + 1 to D + 5): 0% | mortality (no. of dead mice/total no. of tested mice) (D + 12, i.p. 5 mg/kg/day twice daily to D + 3): (5/5) | % parasitemia (mean ± SEM) (D + 12, i.p. 10 mg/kg four times daily D + 4 to D + 7): 50.4 ± 15.6% | % parasitemia (mean ± SEM) [4]: 55.7 ± 48.4% | mortality (no. of dead mice/total no. of tested mice) [4]: 2/5 | mortality (no. of dead mice/total no. of tested mice) (D + 12, i.p. 10 mg/kg/day twice daily to D + 3): 4/5 | % parasitemia (mean ± SEM) (D + 12, i.p. 10 mg/kg/day twice daily, 3 h after infection and D + 1 to D + 3): 82% | mortality (no. of dead mice/total no. of tested mice) (D + 12, i.p. 15 mg/kg/day twice daily to D + 3): (1/5) | % parasitemia (mean ± SEM) (D + 12, i.p. 15 mg/kg/day twice daily, 3 h after infection and D + 1 to D + 3): 4.8 ± 3.2% | Parasitemia, mean (D + 13, 10 mg per kg twice daily days +1 to +4): 50.0% | % parasitemia, Mean (D + 13): 6.5% | Parasitemia, mean (D + 14, 10 mg per kg twice daily days +1 to +4): 35.0% | mortality (no. of dead mice/total no. of tested mice) (D + 14, 10 mg/kg/day twice daily to D + 5): 1/5 | % parasitemia (mean ± SEM) (D + 14, 10 mg/kg/day twice daily, 3 h after infection, D + 1 to D + 5): 17 ± 17% | % parasitemia (mean ± SEM) (D + 14, 15 mg/kg/day twice daily, 3 h after infection, D + 1 to D + 5): 0% | % parasitemia (mean ± SEM) (D + 14, i.p. 10 mg/kg four times daily D + 4 to D + 7): 58.6 ± 9.0% | % parasitemia (mean ± SEM) [5]: 0% | mortality (no. of dead mice/total no. of tested mice) [5]: 4/5 | mortality (no. of dead mice/total no. of tested mice) (D + 14, i.p. 10 mg/kg/day twice daily to D + 3): (5/5) | mortality (no. of dead mice/total no. of tested mice) (D + 14, i.p. 15 mg/kg/day twice daily to D + 3): 1/5 | % parasitemia (mean ± SEM) (D + 14, i.p. 15 mg/kg/day twice daily, 3 h after infection and D + 1 to D + 3): 0% | Parasitemia, mean [6]: 2.0% | Parasitemia, single mice [6]: 2.0% | Parasitemia, mean [7]: 0.3% | Parasitemia, single mice [7]: 0.5% and 0.1% | mortality (no. of dead mice/total no. of tested mice) (D + 16, 10 mg/kg/day twice daily to D + 5): 2/5 | % parasitemia (mean ± SEM) (D + 16, 10 mg/kg/day twice daily, 3 h after infection, D + 1 to D + 5): 0% | % parasitemia (mean ± SEM) (D + 16, 15 mg/kg/day twice daily, 3 h after infection, D + 1 to D + 5): 0% | % parasitemia (mean ± SEM) [8]: 75.8 ± 6.6% | mortality (no. of dead mice/total no. of tested mice) [8]: 1/5 | % parasitemia (mean ± SEM) [9]: 0% | mortality (no. of dead mice/total no. of tested mice) [9]: 4/5 | % parasitemia, Mean (D + 16): 0% | Parasitemia, mean [10]: 0.0% | Parasitemia, single mice [10]: 0.0% | mortality (no. of dead mice/total no. of tested mice) (D + 18, 10 mg/kg/day twice daily to D + 5): 2/5 | % parasitemia (mean ± SEM) (D + 18, 10 mg/kg/day twice daily, 3 h after infection, D + 1 to D + 5): 0% | % parasitemia (mean ± SEM) (D + 18, 15 mg/kg/day twice daily, 3 h after infection, D + 1 to D + 5): 0% | % parasitemia (mean ± SEM) [11]: 53 ± 25% | mortality (no. of dead mice/total no. of tested mice) [11]: 2/5 | % parasitemia (mean ± SEM) [12]: 0% | mortality (no. of dead mice/total no. of tested mice) [12]: 4/5 | % parasitemia (mean ± SEM) [13]: 19 ± 9.7% | mortality (no. of dead mice/total no. of tested mice) [13]: 3/5 | % parasitemia (mean ± SEM) [14]: 0% | mortality (no. of dead mice/total no. of tested mice) [14]: 4/5
